# ChEMBL document CHEMBL5465560, “Selectivity Literature for EUbOPEN Chemogenomic Library” (2024)
# Tests used:
# [1] = target: Casein kinase I isoform gamma-1 (Homo sapiens) (UniProt Q9HCP0); test: Selectivity interaction (KinomeScan (DiscoverX)) EUB0000229b CSNK1G1; conditions: at 10 µM
# [2] = target: Tyrosine-protein kinase Fer (Homo sapiens) (UniProt P16591); test: Selectivity interaction (Kinase panel (KiNativ target engagement assay in Jurkat cells)) EUB0001635a FER; format: cell-based; conditions: Selectivity number of off-targets 0.0, Selectivity number of targets 233.0, Source Knowledge https://www.sciencedirect.com/science/article/pii/S2451945619300674?via%3Dihub, at 1 µM
# [3] = target: Serine/threonine-protein kinase PRP4 homolog (Homo sapiens) (UniProt Q13523); test: Selectivity interaction (ActivX KiNativ screen (kinase selectivity in THP-1 cell lysates)) EUB0000639a PRPF4; format: subcellular; conditions: lysate, at 5 µM
# [4] = target: Casein kinase I isoform epsilon (Homo sapiens, UniProt P49674); test: Selectivity interaction (Kinase panel (Invitrogen)) EUB0000639a CSNK1E; conditions: at 200 nM
# [5] = target: STE20-like serine/threonine-protein kinase (Homo sapiens, UniProt Q9H2G2); test: Selectivity interaction (ActivX KiNativ screen (kinase selectivity in THP-1 cell lysates)) EUB0000639a SLK; format: subcellular; conditions: lysate, at 1 µM
# [6] = target: Cyclin-dependent kinase 7 (Homo sapiens, UniProt P50613); test: Selectivity interaction (ActivX KiNativ screen (kinase selectivity in THP-1 cell lysates)) EUB0000639a CDK7; format: subcellular; conditions: lysate, at 0.2 µM
# [7] = target: Macrophage-stimulating protein receptor (Homo sapiens, UniProt Q04912); test: Selectivity interaction (Kinase screening (Nanosyn)) EUB0000604a MST1R
# [8] = target: T1, Hormonally up-regulated neu tumor-associated kinase (Homo sapiens) (UniProt P57058); test: Selectivity interaction (Ambit KINOMEscan and KiNATiv profiling in Jurkat cells) EUB0000090b HUNK; format: cell-based; conditions: at 1 µM
# T1 sequence (whole entry): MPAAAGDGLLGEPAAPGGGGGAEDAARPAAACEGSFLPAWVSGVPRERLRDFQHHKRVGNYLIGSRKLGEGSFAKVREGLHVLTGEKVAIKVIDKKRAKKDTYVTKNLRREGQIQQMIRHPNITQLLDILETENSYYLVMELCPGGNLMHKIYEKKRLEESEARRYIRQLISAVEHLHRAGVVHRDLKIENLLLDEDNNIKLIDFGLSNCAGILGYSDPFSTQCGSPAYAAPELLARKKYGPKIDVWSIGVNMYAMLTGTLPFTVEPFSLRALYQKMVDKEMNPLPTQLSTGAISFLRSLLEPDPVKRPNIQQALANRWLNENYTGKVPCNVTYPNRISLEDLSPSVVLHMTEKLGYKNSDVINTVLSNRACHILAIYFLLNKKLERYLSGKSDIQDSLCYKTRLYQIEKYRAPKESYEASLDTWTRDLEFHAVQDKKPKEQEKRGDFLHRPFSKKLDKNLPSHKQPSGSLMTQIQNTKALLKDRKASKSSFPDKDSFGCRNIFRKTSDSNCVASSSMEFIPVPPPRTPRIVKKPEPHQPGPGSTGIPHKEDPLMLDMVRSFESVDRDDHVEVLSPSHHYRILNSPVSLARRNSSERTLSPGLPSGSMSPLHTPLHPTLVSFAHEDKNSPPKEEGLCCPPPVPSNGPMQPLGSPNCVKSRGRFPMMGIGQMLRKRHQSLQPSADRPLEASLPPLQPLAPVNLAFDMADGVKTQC
# [9] = target: Mitogen-activated protein kinase 6 (Homo sapiens) (UniProt Q16659); test: Selectivity interaction (KinomeScan (DiscoverX)) EUB0001619a MAPK6; conditions: at 1 µM
# [10] = target: T2, Mitogen-activated protein kinase kinase kinase 6 (Homo sapiens) (UniProt O95382); test: Selectivity interaction (KinomeScan (DiscoverX)) EUB0000607a MAP3K6; conditions: at 10 µM
# T2 sequence (whole entry): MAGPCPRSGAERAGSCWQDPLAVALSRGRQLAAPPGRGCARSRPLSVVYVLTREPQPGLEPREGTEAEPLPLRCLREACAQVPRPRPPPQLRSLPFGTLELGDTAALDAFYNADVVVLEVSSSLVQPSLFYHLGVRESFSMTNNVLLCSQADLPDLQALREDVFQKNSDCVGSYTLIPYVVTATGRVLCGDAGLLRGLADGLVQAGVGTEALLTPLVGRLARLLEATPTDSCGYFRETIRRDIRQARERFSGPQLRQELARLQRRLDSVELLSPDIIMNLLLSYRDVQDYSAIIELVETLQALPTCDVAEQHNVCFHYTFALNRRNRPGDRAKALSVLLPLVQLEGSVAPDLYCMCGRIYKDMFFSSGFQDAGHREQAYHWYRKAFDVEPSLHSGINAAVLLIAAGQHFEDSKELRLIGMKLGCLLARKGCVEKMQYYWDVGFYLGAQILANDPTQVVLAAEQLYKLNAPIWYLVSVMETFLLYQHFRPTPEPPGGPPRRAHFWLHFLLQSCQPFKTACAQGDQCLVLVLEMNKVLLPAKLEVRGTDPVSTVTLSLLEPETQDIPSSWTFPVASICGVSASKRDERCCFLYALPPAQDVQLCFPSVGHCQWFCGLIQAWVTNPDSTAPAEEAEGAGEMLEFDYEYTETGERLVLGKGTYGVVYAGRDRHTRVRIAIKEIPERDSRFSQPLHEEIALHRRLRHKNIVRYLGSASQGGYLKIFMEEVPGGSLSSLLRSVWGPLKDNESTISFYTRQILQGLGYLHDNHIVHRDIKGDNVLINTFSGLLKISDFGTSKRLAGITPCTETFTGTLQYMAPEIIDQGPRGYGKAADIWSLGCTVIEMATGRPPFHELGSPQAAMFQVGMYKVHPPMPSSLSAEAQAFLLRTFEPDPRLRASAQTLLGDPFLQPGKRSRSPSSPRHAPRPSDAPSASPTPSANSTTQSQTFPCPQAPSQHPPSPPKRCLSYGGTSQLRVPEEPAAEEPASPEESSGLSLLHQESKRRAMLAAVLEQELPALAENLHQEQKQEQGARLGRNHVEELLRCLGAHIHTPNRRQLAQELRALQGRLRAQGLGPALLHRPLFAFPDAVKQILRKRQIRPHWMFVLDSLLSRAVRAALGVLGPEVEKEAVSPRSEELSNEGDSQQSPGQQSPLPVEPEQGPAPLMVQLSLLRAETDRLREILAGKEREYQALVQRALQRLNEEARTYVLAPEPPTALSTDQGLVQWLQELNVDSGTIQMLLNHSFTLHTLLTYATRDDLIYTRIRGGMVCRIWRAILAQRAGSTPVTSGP
# Sequence of Casein kinase I isoform gamma-1 (Homo sapiens) (Q9HCP0 whole entry, looked up, canonical isoform): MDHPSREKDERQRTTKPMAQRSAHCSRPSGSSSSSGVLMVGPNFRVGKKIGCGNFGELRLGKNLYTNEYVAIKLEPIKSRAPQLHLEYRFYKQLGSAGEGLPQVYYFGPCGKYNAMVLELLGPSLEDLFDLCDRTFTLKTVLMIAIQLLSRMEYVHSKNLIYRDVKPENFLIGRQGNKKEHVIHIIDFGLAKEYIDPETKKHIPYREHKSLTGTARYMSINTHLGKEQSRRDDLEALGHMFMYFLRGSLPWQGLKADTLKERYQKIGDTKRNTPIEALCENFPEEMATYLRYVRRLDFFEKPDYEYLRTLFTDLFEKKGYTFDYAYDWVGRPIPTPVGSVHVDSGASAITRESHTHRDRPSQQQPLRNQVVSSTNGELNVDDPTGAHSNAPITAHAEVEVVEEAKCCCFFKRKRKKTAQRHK
# Sequence of Mitogen-activated protein kinase 6 (Homo sapiens) (Q16659 whole entry): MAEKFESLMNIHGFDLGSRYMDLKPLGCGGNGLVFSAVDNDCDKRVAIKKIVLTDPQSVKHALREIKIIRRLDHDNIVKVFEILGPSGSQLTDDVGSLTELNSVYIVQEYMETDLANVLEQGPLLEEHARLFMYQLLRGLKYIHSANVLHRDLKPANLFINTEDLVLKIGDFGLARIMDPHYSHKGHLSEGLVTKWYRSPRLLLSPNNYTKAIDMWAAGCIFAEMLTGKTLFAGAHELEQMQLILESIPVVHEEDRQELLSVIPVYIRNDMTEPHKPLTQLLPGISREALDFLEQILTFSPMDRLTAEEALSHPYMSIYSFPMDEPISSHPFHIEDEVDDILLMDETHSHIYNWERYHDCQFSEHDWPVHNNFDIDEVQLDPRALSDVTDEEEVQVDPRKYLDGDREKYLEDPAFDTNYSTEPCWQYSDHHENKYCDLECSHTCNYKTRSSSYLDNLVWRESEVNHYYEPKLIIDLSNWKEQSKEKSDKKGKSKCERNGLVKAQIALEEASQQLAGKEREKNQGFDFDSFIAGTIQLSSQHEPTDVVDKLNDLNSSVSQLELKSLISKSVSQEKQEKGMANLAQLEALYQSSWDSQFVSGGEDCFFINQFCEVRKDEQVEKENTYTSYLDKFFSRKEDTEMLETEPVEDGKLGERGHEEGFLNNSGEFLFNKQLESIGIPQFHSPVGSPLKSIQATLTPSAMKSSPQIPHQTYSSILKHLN
# Sequence of Serine/threonine-protein kinase PRP4 homolog (Homo sapiens) (Q13523 whole entry, canonical isoform): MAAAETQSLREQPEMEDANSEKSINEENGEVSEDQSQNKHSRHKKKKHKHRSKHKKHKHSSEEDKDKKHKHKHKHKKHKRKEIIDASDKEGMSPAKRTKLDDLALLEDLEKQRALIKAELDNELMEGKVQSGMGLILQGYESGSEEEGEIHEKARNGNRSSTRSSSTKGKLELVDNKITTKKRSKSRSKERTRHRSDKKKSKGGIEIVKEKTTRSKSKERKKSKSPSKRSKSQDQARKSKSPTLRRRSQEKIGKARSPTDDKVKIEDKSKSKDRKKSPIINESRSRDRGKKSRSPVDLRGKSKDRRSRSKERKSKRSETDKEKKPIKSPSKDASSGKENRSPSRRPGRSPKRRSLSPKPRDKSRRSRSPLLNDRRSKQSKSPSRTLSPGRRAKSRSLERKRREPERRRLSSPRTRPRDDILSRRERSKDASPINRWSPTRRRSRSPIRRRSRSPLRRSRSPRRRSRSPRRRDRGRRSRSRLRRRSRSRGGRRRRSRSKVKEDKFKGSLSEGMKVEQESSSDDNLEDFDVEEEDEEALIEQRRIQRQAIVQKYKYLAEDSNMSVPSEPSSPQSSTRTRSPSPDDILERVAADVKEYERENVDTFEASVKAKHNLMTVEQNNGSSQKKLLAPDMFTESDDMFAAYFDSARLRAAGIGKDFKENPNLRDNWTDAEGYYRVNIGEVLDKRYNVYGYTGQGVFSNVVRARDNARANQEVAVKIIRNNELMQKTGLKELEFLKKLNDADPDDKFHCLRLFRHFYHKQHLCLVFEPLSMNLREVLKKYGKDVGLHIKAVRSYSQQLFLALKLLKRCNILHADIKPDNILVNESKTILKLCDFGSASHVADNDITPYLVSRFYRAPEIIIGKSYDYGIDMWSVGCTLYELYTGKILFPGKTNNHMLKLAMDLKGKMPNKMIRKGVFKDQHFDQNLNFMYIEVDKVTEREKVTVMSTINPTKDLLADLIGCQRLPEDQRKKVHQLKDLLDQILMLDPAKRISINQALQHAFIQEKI
# Sequence of Tyrosine-protein kinase Fer (Homo sapiens) (P16591 whole entry, looked up): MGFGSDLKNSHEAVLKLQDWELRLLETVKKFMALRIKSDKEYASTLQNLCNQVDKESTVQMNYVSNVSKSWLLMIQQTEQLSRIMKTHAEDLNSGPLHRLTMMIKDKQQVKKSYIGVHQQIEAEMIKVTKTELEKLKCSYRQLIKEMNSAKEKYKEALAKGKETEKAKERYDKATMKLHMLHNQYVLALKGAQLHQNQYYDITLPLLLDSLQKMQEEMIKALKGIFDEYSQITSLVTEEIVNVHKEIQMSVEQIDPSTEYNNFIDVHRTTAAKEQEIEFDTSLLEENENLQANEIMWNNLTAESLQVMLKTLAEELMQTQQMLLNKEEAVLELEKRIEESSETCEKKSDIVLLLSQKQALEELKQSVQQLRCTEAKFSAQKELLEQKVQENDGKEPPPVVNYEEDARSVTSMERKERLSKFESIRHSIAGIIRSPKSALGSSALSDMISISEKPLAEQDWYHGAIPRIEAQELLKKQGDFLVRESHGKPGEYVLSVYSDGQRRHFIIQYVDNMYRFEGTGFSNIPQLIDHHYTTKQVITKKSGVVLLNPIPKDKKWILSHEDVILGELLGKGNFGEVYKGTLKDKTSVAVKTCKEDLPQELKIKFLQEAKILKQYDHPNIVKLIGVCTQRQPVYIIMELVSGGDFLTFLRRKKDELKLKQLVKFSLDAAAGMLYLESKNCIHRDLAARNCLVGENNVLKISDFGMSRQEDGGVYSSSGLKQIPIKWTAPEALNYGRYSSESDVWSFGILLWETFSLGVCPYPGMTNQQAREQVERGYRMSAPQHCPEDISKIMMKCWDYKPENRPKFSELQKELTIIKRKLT
# Sequence of Macrophage-stimulating protein receptor (Q04912 25-304 limits assumed): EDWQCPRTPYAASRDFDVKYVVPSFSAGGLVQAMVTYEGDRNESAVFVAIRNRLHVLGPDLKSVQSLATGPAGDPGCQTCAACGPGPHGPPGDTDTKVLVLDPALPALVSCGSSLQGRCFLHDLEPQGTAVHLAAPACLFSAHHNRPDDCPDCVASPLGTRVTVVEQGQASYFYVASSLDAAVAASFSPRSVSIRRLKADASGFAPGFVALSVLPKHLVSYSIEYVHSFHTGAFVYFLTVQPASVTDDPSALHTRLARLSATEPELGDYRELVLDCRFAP
# Sequence of Macrophage-stimulating protein receptor (Q04912 310-1400 limits assumed): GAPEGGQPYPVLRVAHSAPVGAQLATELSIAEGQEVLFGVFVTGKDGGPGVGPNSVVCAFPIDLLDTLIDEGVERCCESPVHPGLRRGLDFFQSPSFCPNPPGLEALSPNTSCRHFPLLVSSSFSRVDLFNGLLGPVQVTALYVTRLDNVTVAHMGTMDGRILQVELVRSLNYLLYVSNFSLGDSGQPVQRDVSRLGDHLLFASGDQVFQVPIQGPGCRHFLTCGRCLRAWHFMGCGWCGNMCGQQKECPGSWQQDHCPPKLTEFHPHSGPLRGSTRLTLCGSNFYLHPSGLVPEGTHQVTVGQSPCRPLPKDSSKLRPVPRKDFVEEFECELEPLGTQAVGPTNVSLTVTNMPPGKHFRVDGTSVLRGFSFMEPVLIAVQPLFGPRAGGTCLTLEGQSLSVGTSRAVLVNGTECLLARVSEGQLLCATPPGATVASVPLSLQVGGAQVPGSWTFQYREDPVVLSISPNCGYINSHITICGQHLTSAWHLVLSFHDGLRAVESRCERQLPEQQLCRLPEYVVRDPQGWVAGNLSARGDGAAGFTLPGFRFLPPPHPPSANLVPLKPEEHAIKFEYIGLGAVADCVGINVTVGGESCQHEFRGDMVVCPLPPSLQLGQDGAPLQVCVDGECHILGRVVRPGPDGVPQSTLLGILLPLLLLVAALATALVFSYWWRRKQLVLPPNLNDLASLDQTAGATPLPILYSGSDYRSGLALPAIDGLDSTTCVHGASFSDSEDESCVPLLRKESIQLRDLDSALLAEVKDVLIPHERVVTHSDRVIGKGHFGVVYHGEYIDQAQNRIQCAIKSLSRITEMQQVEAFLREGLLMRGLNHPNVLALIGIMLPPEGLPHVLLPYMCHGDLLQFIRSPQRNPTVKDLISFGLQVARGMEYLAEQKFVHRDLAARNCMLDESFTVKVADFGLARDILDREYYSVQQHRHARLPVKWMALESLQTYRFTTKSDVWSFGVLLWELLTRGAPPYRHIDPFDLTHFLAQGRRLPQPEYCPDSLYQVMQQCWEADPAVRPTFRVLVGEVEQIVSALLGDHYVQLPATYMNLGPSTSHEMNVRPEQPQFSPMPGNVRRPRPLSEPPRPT
# Sequence of Casein kinase I isoform epsilon (P49674 whole entry, looked up, canonical isoform): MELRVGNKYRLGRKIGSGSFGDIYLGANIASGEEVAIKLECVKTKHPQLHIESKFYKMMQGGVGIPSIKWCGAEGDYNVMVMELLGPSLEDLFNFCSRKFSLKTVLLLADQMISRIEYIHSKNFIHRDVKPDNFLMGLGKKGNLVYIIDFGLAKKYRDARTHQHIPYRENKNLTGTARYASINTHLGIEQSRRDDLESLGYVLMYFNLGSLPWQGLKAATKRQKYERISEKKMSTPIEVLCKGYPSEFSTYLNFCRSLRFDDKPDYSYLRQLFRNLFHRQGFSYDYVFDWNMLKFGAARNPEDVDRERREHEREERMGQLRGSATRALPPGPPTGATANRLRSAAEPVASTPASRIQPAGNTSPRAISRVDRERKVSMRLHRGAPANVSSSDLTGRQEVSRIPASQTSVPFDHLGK
structure (smiles),measurement,setting,value
COc1cc(N(C)c2ccnc3ccc(C(F)(F)F)cc23)cc(OC)c1OC,% binding,[1],76%
C=CC(=O)Nc1ccc(C(=O)Nc2[nH]nc3c2CN(C(=O)N[C@H](CN(C)C)c2ccccc2)C3(C)C)cc1,% of engagement,[2],-6.9%
CC[C@@H]1[C@H](F)C(=O)N[C@@H]1COc1nccc2cc(C(N)=O)c(OC)cc12 [ZIMLOVISERTIB],% of inhibition,[3],85.9%
same,% of inhibition,[4],42.3%
same,% of inhibition,[5],-14.8%
same,% of inhibition,[6],-4.5%
Cc1cnc(Nc2ccc(F)cc2Cl)nc1-c1c[nH]c(C(=O)N[C@H](CO)c2cccc(Cl)c2)c1,% of inhibition,[7],1%
CN(C)C/C=C/C(=O)Nc1ccc(C(=O)N2CCCC(Nc3ncc(Cl)c(-c4c[nH]c5ccccc45)n3)C2)cc1 (stereo not given),% of control,[8],80%
N#Cc1cccc(-c2c[nH]c3ncnc(N4CCOCC4)c23)c1,% of control,[9],100%
CNC(=O)Nc1ccc(-c2nc(N3CC4CCC(C3)O4)c3cnn(C4CCC5(CC4)OCCO5)c3n2)cc1,% of control,[10],80%
